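Test compounds were applied to cells in 96-well plates for 48 hours at 5 doses. The concentration for 50% growth inhibition is given as GI50. TGI is the concentration that stops growth completely.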

Experiment in all cases: NCI-60 cell line screen, 48 h
Test [1] has as its system SF-268 CNS.
Test [2] deals with SF-539 CNS.
The test system of test [3] is CAKI-1 renal.
For test [4], the system named is UO-31 renal.
For test [5], the system named is HL-60(TB) leukemia.
For test [6], the system named is MDA-MB-435.
In test [7] the test system is MDA-MB-231 breast.
For test [8], the system named is OVCAR-5 ovarian.
Test [9] concerns HCC-2998 colon.
In test [10] the test system is HT29 colon.

For the compound `CCOc1cc(/C=C/C(=O)CC(=O)/C=C/c2ccc(OC(=O)CNCCN(CC)CC)c(OCC)c2)ccc1OC(=O)CNCCN(CC)CC`, the GI50 in [1] was 1.98 µM; in test [2] it was 1.38 µM; in [3], 2.12 µM; in test [4], 1.7 µM; in [5] it was 1.16 µM; in [6], 1.56 µM. For the same compound, the GI50 is 2.08 µM in test [7], 2.27 µM in test [8] and 1.65 µM in [9]. For the same compound, the TGI in test [1] was found to be 9.64 µM; in test [2], 3.1 µM; in [3], 6.74 µM; in [4] it was 3.82 µM; in [5] it was 4.25 µM; in [6] it was 6.31 µM. The TGI was determined as 6.08 µM in test [7], 5.43 µM in test [8] and 3.19 µM in [9].

As for `Clc1cccc2[nH]ncc12`, the TGI in test [2], in test [3], in [10], in [5], in [6] and in [7] was over 100 µM throughout. Moreover, the TGI in [8] and in test [9] was over 100 µM in each case.

Take `COC(=O)[C@]1(C)CCCC2(C)C3=C(CCC21)CC1(CC3)SCCS1` (stereo partly specified): the TGI in test [1], in test [2], in [3], in [10], in test [5] and in test [6] was over 10 µM in each case. Further, the TGI in test [7] and in test [9] was over 10 µM throughout.

As for `CC(=O)Oc1ccc(/C=C/C(=O)NCCOC(=O)/C=C/c2ccc(OC(C)=O)c(OC(C)=O)c2)cc1OC(C)=O`, the TGI in [1] is over 100 µM; in test [2] it was over 100 µM; in test [3] it was over 100 µM; in test [4] it was 83.3 µM; in [10] it was over 100 µM; in test [6], over 100 µM. The TGI in [7] was over 100 µM; in test [8], 97.6 µM; in test [9], over 100 µM.

Turning to `COC(=O)C1(Cc2ccccc2)Cc2c(C)ccc(C)c2C1=O` (stereo unspecified), the TGI is over 100 µM in test [1]; over 100 µM in test [2]; 38 µM in [4]; 69.8 µM in test [10]; 54 µM in test [5]; 43.4 µM in [6]. Further, the TGI in test [7] is 38.4 µM; in test [8] it was over 100 µM; in test [9], 97.7 µM.

As for `CCOC(=O)[C@@H]1C[C@@H]1c1ccc(O)c(O)c1`, the TGI is over 100 µM in test [1]; 49.3 µM in [2]; over 100 µM in test [3]; 60.9 µM in [4]; over 100 µM in [10]; 34.5 µM in [6]. In addition, the results for the TGI in test [7], in [8] and in [9] were 27.8 µM, over 100 µM and 67.7 µM, respectively.

Take `Brc1ccc(-c2nc(-c3ccc(Br)cc3)n(-c3ccccc3)n2)cc1`: the TGI in [1], in test [2], in [3], in test [4], in test [10] and in [5] was over 100 µM each time. For the same compound, the TGI in test [6], in test [7] and in [8] was over 100 µM throughout.

As for `Cc1cc2c3c(c1)CCCN3CCC2`, the TGI in test [1], in test [2], in test [3], in [4], in test [10] and in test [5] was over 10 µM throughout. Further, the TGI in test [6], in test [7] and in [9] was over 10 µM in each case.

Regarding `CCOP(=O)(/C=C\n1ccc(=O)[nH]c1=O)OCC`, the TGI in test [1], in test [2], in test [3], in test [10], in test [5] and in test [6] was over 100 µM each time. The TGI in test [7] and in [8] was over 100 µM each time.

Consider `COc1ccc2c(C(=O)c3c(C)n(CCN4CCOCC4)c4ccccc34)cccc2c1`, for which the TGI in test [1] was 55.4 µM; in [2], over 100 µM; in test [3], over 100 µM; in test [4], over 100 µM; in [10] it was 64 µM; in [5], 23.4 µM. Further, the TGI in test [6] was 22.8 µM; in [7], 80.2 µM; in test [8], over 100 µM.

`CCOP(=O)(/C=C/n1cnc2c(=O)n(C(C)=O)c(N)nc21)OCC`: the TGI in [1], in [2], in test [3], in test [10], in test [5] and in [6] was over 100 µM in each case. The TGI in [7] and in [8] was over 100 µM in each case.

As for `COc1ccc(/C=N/n2c(Cc3ccccc3)n[nH]c2=O)cc1`, the TGI in [1], in [2], in test [3], in [4], in test [10] and in test [6] was over 100 µM throughout. Besides, the TGI in test [7], in test [8] and in [9] was over 100 µM throughout.

With `C/C(=N\Nc1nc2ccccc2n1C)c1ccc2ccccc2n1`, the TGI was 19.2 µM in [1]; over 34.3 µM in [2]; 4.51 µM in [3]; 11.8 µM in test [4]; 18.3 µM in test [10]; 42.7 µM in [6]. Besides, the results for the TGI in [7], in test [8] and in [9] were 28.8 µM, 11 µM and 0.9 µM, respectively.

Consider `CC(=O)N1c2ccccc2[C@H]2CCc3c([nH]c4ccccc34)[C@H]21`, for which the TGI came out at 52.3 µM in [1]; 26.1 µM in test [2]; 64.4 µM in test [3]; 67.6 µM in test [4]; 44.7 µM in [10]; 34.2 µM in [5]. Moreover, the results for the TGI in test [6], in test [7] and in [8] were 42.5 µM, 31.5 µM and over 100 µM, respectively.

(Values after PubChem BioAssay (NCI).)
